Test results published in PubChem BioAssay AID1963830 (Molecular Pharmacology Branch, DTP, NCI, 2024).

System: 922993-354-T-J3-PDC complex spheroid viability
Test: Anticancer human tumor 922993-354-T-J3-PDC patient-derived endometrial carcinoma cell line growth inhibition [POLQ]
Conditions: for IC50: curve of first compound; for viability, T/C: stronger effect = lower value
Outline: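 Patient-derived tumour cells were co-cultured with HUVEC and mesenchymal stem cells as multicellular spheroids at 37 °C. They were treated with POLQ inhibitors (novobiocin, ART-558, RP6685) alone or combined with other agents. Top concentrations were at or near clinical Cmax (otherwise 10 microM; SN-38 at 1 microM), decreasing in half-log steps.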

[1] = second compound 0.0316 µM, first compound 0.0316 µM
[2] = second compound 0.0316 µM, first compound 0.1 µM
[3] = second compound 0.0316 µM, first compound 0.316 µM
[4] = second compound 0.0316 µM, first compound 1 µM
[5] = second compound 0.1 µM, first compound 0.0316 µM
[6] = second compound 0.1 µM, first compound 0.1 µM
[7] = second compound 0.1 µM, first compound 0.316 µM
[8] = second compound 0.1 µM, first compound 1 µM
[9] = second compound 0.316 µM, first compound 0.0316 µM
[10] = second compound 0.316 µM, first compound 0.1 µM
[11] = second compound 0.316 µM, first compound 0.316 µM
[12] = second compound 0.316 µM, first compound 1 µM
[13] = second compound 1 µM, first compound 0.0316 µM
[14] = second compound 1 µM, first compound 0.1 µM
[15] = second compound 1 µM, first compound 0.316 µM
[16] = second compound 1 µM, first compound 1 µM
[17] = second compound 3.16 µM, first compound 0.0316 µM
[18] = second compound 3.16 µM, first compound 0.1 µM
[19] = second compound 3.16 µM, first compound 0.316 µM
[20] = second compound 3.16 µM, first compound 1 µM
[21] = second compound 10 µM, first compound 0.0316 µM
[22] = second compound 10 µM, first compound 0.1 µM
[23] = second compound 10 µM, first compound 0.316 µM
[24] = second compound 10 µM, first compound 1 µM
[25] = second compound 0.0316 µM, first compound 3.16 µM
[26] = second compound 0.0316 µM, first compound 10 µM
[27] = second compound 0.1 µM, first compound 3.16 µM
[28] = second compound 0.1 µM, first compound 10 µM
[29] = second compound 0.316 µM, first compound 3.16 µM
[30] = second compound 0.316 µM, first compound 10 µM
[31] = second compound 1 µM, first compound 3.16 µM
[32] = second compound 1 µM, first compound 10 µM
[33] = second compound 3.16 µM, first compound 3.16 µM
[34] = second compound 3.16 µM, first compound 10 µM
[35] = second compound 10 µM, first compound 3.16 µM
[36] = second compound 10 µM, first compound 10 µM
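Also: spheroids exposed to the agents for one week.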
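For viability, T/C in this document: 100% = DMSO vehicle control wells.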

COc1cccc(OCCCN)c1-c1cc(Nc2cnc(C#N)cn2)n[nH]1 + COC1C(OC(N)=O)C(O)C(Oc2ccc3c(O)c(NC(=O)c4ccc(O)c(CC=C(C)C)c4)c(=O)oc3c2C)OC1(C)C
IC50 (second compound 0.0316 µM): 204 nM | IC50 (second compound 0.1 µM): 187 nM | IC50 (second compound 0.316 µM): 175 nM | IC50 (second compound 1 µM): 159 nM | IC50 (second compound 3.16 µM): 159 nM | IC50 (second compound 10 µM): 160 nM | viability, T/C (second compound 0.0316 µM, first compound 0.00316 µM): 92.4% | viability, T/C (second compound 0.0316 µM, first compound 0.01 µM): 94% | viability, T/C [1]: 94.3% | viability, T/C [2]: 91% | viability, T/C [3]: 24.6% | viability, T/C [4]: 9.14% | viability, T/C (second compound 0.1 µM, first compound 0.00316 µM): 99.6% | viability, T/C (second compound 0.1 µM, first compound 0.01 µM): 96.5% | viability, T/C [5]: 102% | viability, T/C [6]: 87.2% | viability, T/C [7]: 18.6% | viability, T/C [8]: 8.7% | viability, T/C (second compound 0.316 µM, first compound 0.00316 µM): 100% | viability, T/C (second compound 0.316 µM, first compound 0.01 µM): 92.2% | viability, T/C [9]: 97.2% | viability, T/C [10]: 84.6% | viability, T/C [11]: 13.6% | viability, T/C [12]: 9.43% | viability, T/C (second compound 1 µM, first compound 0.00316 µM): 108% | viability, T/C (second compound 1 µM, first compound 0.01 µM): 94% | viability, T/C [13]: 78.9% | viability, T/C [14]: 75.3% | viability, T/C [15]: 12.9% | viability, T/C [16]: 8.85% | viability, T/C (second compound 3.16 µM, first compound 0.00316 µM): 103% | viability, T/C (second compound 3.16 µM, first compound 0.01 µM): 110% | viability, T/C [17]: 95.9% | viability, T/C [18]: 70% | viability, T/C [19]: 21.3% | viability, T/C [20]: 9.8% | viability, T/C (second compound 10 µM, first compound 0.00316 µM): 90.1% | viability, T/C (second compound 10 µM, first compound 0.01 µM): 69.7% | viability, T/C [21]: 80.1% | viability, T/C [22]: 73.4% | viability, T/C [23]: 16.1% | viability, T/C [24]: 8.31%

Nc1ccn(C2OC(CO)C(O)C2(F)F)c(=O)n1 (stereo not drawn) + COC1C(OC(N)=O)C(O)C(Oc2ccc3c(O)c(NC(=O)c4ccc(O)c(CC=C(C)C)c4)c(=O)oc3c2C)OC1(C)C
IC50 (second compound 0.0316 µM): < 31.6 nM | IC50 (second compound 0.1 µM): < 31.6 nM | IC50 (second compound 0.316 µM): < 31.6 nM | IC50 (second compound 1 µM): < 31.6 nM | IC50 (second compound 3.16 µM): < 31.6 nM | IC50 (second compound 10 µM): < 31.6 nM | viability, T/C [1]: 10.3% | viability, T/C [2]: 10.7% | viability, T/C [3]: 10.7% | viability, T/C [4]: 10.6% | viability, T/C [25]: 8.5% | viability, T/C [26]: 8.9% | viability, T/C [5]: 12.4% | viability, T/C [6]: 12.8% | viability, T/C [7]: 10.4% | viability, T/C [8]: 9.28% | viability, T/C [27]: 9% | viability, T/C [28]: 8.97% | viability, T/C [9]: 11.4% | viability, T/C [10]: 11.6% | viability, T/C [11]: 11.5% | viability, T/C [12]: 8.83% | viability, T/C [29]: 10.4% | viability, T/C [30]: 9.46% | viability, T/C [13]: 11.9% | viability, T/C [14]: 8.68% | viability, T/C [15]: 9.63% | viability, T/C [16]: 10.4% | viability, T/C [31]: 7.97% | viability, T/C [32]: 9.31% | viability, T/C [17]: 12.1% | viability, T/C [18]: 8.92% | viability, T/C [19]: 10.3% | viability, T/C [20]: 10.4% | viability, T/C [33]: 12.1% | viability, T/C [34]: 8.3% | viability, T/C [21]: 8.46% | viability, T/C [22]: 10.1% | viability, T/C [23]: 9.42% | viability, T/C [24]: 8.26% | viability, T/C [35]: 8.87% | viability, T/C [36]: 8.43%

CC(C)n1c(=O)n(C)c2cnc3cc(F)c(-c4ccc(OCCCN5CCCCC5)nc4)cc3c21 + Nc1ccc(C#CCN(C(=O)Cc2ncc(C(F)(F)F)cc2C(F)(F)F)c2ccc(F)cc2)nn1
IC50 (second compound 0.0316 µM): > 10000 nM | IC50 (second compound 0.1 µM): > 10000 nM | IC50 (second compound 0.316 µM): > 10000 nM | IC50 (second compound 1 µM): > 10000 nM | IC50 (second compound 3.16 µM): > 10000 nM | IC50 (second compound 10 µM): > 10000 nM | viability, T/C [1]: 101% | viability, T/C [2]: 99% | viability, T/C [3]: 99.1% | viability, T/C [4]: 95.2% | viability, T/C [25]: 93.9% | viability, T/C [26]: 86.7% | viability, T/C [5]: 107% | viability, T/C [6]: 103% | viability, T/C [7]: 104% | viability, T/C [8]: 95.3% | viability, T/C [27]: 86.7% | viability, T/C [28]: 84.7% | viability, T/C [9]: 106% | viability, T/C [10]: 107% | viability, T/C [11]: 93.9% | viability, T/C [12]: 101% | viability, T/C [29]: 93.9% | viability, T/C [30]: 80.1% | viability, T/C [13]: 103% | viability, T/C [14]: 95.9% | viability, T/C [15]: 99.6% | viability, T/C [16]: 98.9% | viability, T/C [31]: 94% | viability, T/C [32]: 80.4% | viability, T/C [17]: 96.9% | viability, T/C [18]: 99.4% | viability, T/C [19]: 94.6% | viability, T/C [20]: 98.1% | viability, T/C [33]: 88.6% | viability, T/C [34]: 84.1% | viability, T/C [21]: 98.8% | viability, T/C [22]: 92.8% | viability, T/C [23]: 94.9% | viability, T/C [24]: 90.6% | viability, T/C [35]: 92.5% | viability, T/C [36]: 82.1%

COc1cccc2c1C(=O)c1c(O)c3c(c(O)c1C2=O)CC(O)(C(=O)CO)CC3OC1CC(N)C(O)C(C)O1 (stereo not drawn) + COC1C(OC(N)=O)C(O)C(Oc2ccc3c(O)c(NC(=O)c4ccc(O)c(CC=C(C)C)c4)c(=O)oc3c2C)OC1(C)C
IC50 (second compound 0.0316 µM): 1350 nM | IC50 (second compound 0.1 µM): 997 nM | IC50 (second compound 0.316 µM): 1080 nM | IC50 (second compound 1 µM): 899 nM | IC50 (second compound 3.16 µM): 893 nM | IC50 (second compound 10 µM): 723 nM | viability, T/C [1]: 104% | viability, T/C [2]: 88.8% | viability, T/C [3]: 80.7% | viability, T/C [4]: 53.3% | viability, T/C [25]: 33.9% | viability, T/C [26]: 10.1% | viability, T/C [5]: 97.2% | viability, T/C [6]: 101% | viability, T/C [7]: 88.6% | viability, T/C [8]: 48% | viability, T/C [27]: 21.8% | viability, T/C [28]: 8.62% | viability, T/C [9]: 105% | viability, T/C [10]: 91.9% | viability, T/C [11]: 77.3% | viability, T/C [12]: 50.7% | viability, T/C [29]: 28.7% | viability, T/C [30]: 12.9% | viability, T/C [13]: 102% | viability, T/C [14]: 96.1% | viability, T/C [15]: 68.7% | viability, T/C [16]: 45.8% | viability, T/C [31]: 30.9% | viability, T/C [32]: 10.7% | viability, T/C [17]: 94.5% | viability, T/C [18]: 100% | viability, T/C [19]: 87.1% | viability, T/C [20]: 44.7% | viability, T/C [33]: 21.6% | viability, T/C [34]: 10.8% | viability, T/C [21]: 86.4% | viability, T/C [22]: 90.8% | viability, T/C [23]: 68.7% | viability, T/C [24]: 41.1% | viability, T/C [35]: 22.8% | viability, T/C [36]: 10.4%
